# Assay results: PubChem BioAssay AID1418 (Emory University Molecular Libraries Screening Center, 2008)
# Active and inactive are the calls of the source. The rule behind the calls is not given here.
# Target: Induced myeloid leukemia cell differentiation protein Mcl-1 (Homo sapiens) (UniProt Q07820)
# Test: blockers of Bid binding to Mcl-1 – biochemical, TR-FRET, dose response (AID 1418)
# Conditions: Mcl-1/Bid peptide binding, TR-FRET (europium/Dy647), 2 hr
# Chain of Induced myeloid leukemia cell differentiation protein Mcl-1 (Homo sapiens) (Q07820 whole entry, looked up): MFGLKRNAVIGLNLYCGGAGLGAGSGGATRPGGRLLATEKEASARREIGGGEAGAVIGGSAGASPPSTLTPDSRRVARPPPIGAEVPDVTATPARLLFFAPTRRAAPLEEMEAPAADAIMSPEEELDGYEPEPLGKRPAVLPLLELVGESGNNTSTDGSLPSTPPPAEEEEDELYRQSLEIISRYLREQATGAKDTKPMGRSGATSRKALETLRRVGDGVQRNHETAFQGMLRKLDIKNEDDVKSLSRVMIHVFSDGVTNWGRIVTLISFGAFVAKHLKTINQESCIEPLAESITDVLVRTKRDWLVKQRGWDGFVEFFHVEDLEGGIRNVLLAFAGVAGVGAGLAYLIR
row,SMILES,IC50
1,COCCN1C(=O)C(=O)/C(=C(/O)c2ccc(S(=O)(=O)N3CCOCC3)cc2)C1c1cccc(Cl)c1 (centres undefined),> 54 µM (inactive)
2,COc1ccc(CCNc2nc(-c3cccnc3)cs2)cc1OC,> 54 µM (inactive)
3,O=[N+]([O-])c1ccc2c(c1)ncn2-c1ccccc1,> 54 µM (inactive)
4,CC1=NOC(=O)/C1=C/c1ccc(-c2ccc(Cl)cc2)o1,8.87 µM
5,COc1cc(C(=O)Nc2ccc3c(c2)C(=O)c2ccccc2C3=O)cc(OC)c1OC,9.01 µM
6,Cc1ccc(C(=O)NC(C)c2nc3ccccc3n2CC(=O)Nc2c(C)cc(C)cc2C)cc1 (centres undefined),0.45 µM
7,O=C(Oc1ccc(Nc2ncnc3ccccc23)cc1)c1cccnc1,> 54 µM (inactive)
8,COc1cc(OC)cc(C(=O)N2CCN(Cc3ccccc3C(F)(F)F)CC2)c1,inactive
9,CC(C)n1c(SCC(=O)Nc2ccc3c(c2)OCO3)nc2c1c(=O)n(C)c(=O)n2C,> 54 µM (inactive)
10,O=C(Cc1sc(-c2ccccc2Cl)nc1-c1ccccc1)Nc1ccccc1,> 54 µM (inactive)
11,COc1cc(/C=N/NC(=O)c2ccc(CN3c4cccc5cccc(c45)S3(=O)=O)cc2)cc(OC)c1O,1.41 µM
12,CC1(C)Cc2cccc(OCC(=O)OCC(=O)Nc3cccc(S(N)(=O)=O)c3)c2O1,> 54 µM (inactive)
13,O=C(CCS(=O)(=O)c1ccc(Br)s1)NC1CCCCCC1,> 54 µM (inactive)
14,Cc1cccc(C(=O)N2CCc3cc(-c4nc(NC(=O)Cn5nnc6ccccc6c5=O)sc4C)ccc32)c1,> 54 µM (inactive)
15,Cc1ccc(NC(=S)N2CCN(c3ncccn3)CC2)cc1C,> 54 µM (inactive)
16,CC(C)N1C(=O)/C(=C/c2nc3ccccc3c(=O)n2-c2ccccc2)c2ccccc21,0.99 µM
17,Cc1sc(NC(=O)c2sc3nc4c(C)cccc4cc3c2N)c(C#N)c1C,0.95 µM
18,O=C(Nc1ccc(Nc2ccncc2)cc1)c1ccc(Nc2ccnc3ccc([N+](=O)[O-])cc23)cc1[N+](=O)[O-],1.38 µM
19,O=c1c2ccccc2nc2n1CCC2,0.52 µM
20,CCSC1=NC2(CCCCC2)Nc2sc3c(c21)CCCC3,0.44 µM
21,COc1cccc(C(=O)Nc2ccc3c(c2)C(=O)c2ccccc2C3=O)c1,2.79 µM
22,C/C(=N\Nc1cccc(C(=O)O)c1)c1ccc2c(c1)Nc1ccccc1S2,0.76 µM
23,O=C1CSC(c2cccnc2)N1c1ccc(Cl)cc1 (centres undefined),> 54 µM (inactive)
24,O=c1c2cc(Cl)ccc2nc(-c2ccccc2Cl)n1O,> 54 µM (inactive)
25,O=C(CCC(=O)c1ccc(Oc2ccccc2)cc1)Nc1cccc(Cl)c1,> 54 µM (inactive)

row,SMILES,IC50
1,Cc1cccc(-n2c(SCC(=O)Nc3nnc(C)s3)nnc2-c2ccoc2C)c1,> 54 µM (inactive)
2,Cc1csc(NC(=O)C2CCN(S(=O)(=O)c3cccs3)CC2)n1,> 54 µM (inactive)
3,O=C1NC(=S)N(C2CC2)C(=O)/C1=C/c1ccc2c(c1)CCN2CCCCl,0.66 µM
4,C=CCc1cccc2cc(C(=O)Nc3ccc(S(=O)(=O)Nc4nnc(CC)s4)cc3)c(=O)oc12,> 54 µM (inactive)
5,C=C(C)Cn1c(Sc2nnc(C)s2)nc2c1c(=O)[nH]c(=O)n2C,> 54 µM (inactive)
6,Cc1sc2ncnc(OCC(=O)Nc3ccc4c(c3)OCCO4)c2c1C,> 54 µM (inactive)
7,CCOc1ccc2nc(NC(=O)c3cccc(-c4cc5ccccc5oc4=O)c3)sc2c1,1.94 µM
8,COc1cc2[nH]c(=S)n(N(C(C)=O)C(C)=O)c(=O)c2cc1OC,> 54 µM (inactive)
9,CCOC(=O)c1c(/N=C/C2C(=O)NC(=S)NC2=O)sc(C)c1C,2.08 µM
10,Fc1ccc(NC(=S)N/N=C/c2cccc(Br)c2)c(F)c1,> 54 µM (inactive)
11,O=C(N=Nc1c(O)[nH]c2ccc([N+](=O)[O-])cc12)c1cc(-c2ccccc2Cl)nc2ccccc12,0.81 µM
12,Cc1csc2ncnc(N3CCN(C(=S)Nc4ccc(F)cc4F)CC3)c12,> 54 µM (inactive)
13,COc1ccc(Nc2nc(C)c3ccccc3n2)cc1,> 54 µM (inactive)
14,COC(=O)C1=CN(CC2CCCO2)C=C(C(=O)OC)C1c1ccsc1 (centres undefined),> 54 µM (inactive)
15,O=C(O)[C@@H](c1ccccc1)N1Cc2ccccc2C1=O,0.54 µM
16,COc1cc(OC)cc(C(=O)Nc2ccc(-c3nc4ccccc4o3)c(O)c2)c1,3.61 µM
17,O=C(Nc1ccc(-c2nc3cc(Cl)ccc3c(=O)o2)cc1)c1ccco1,> 54 µM (inactive)
18,COC(=O)c1cc(OC)c(OC)cc1NCC(=O)Nc1ccc(C)cc1,> 54 µM (inactive)
19,CCCc1nc2oc3cc(OC)ccc3c(=O)c2c(=O)n1CCc1ccccc1,> 54 µM (inactive)
20,O=C(N/N=C/C(Br)=C\c1ccccc1)c1ccco1,> 54 µM (inactive)
21,Cc1cccc(OCc2nc(C#N)c(NCc3ccc4c(c3)OCO4)o2)c1,> 54 µM (inactive)
22,Cc1ccc(CSc2nnc(SCC(=O)N/N=C/c3c[nH]c4ccccc34)s2)cc1,0.53 µM
23,O=[N+]([O-])c1ccc(-c2nc3ccc([N+](=O)[O-])cc3[nH]2)cc1,13 µM
24,O=C(Cc1ccc(F)cc1)Nc1nnc(SCC(=O)NC2CCCC2)s1,> 54 µM (inactive)
25,N#Cc1cc(-c2ccccc2)nc(Oc2ccccc2)n1,> 54 µM (inactive)

row,SMILES,IC50
1,O=c1c2ccccc2nc(/C=C/c2cccnc2)n1CCc1ccccc1,0.63 µM
2,NC(=O)COc1c(-c2ccccc2)oc2ccccc2c1=O,> 54 µM (inactive)
3,O=c1c2ccccc2sc2nc(C3CCCCC3)n(Cc3ccco3)c(=O)c12,19.3 µM
4,CCn1c(C)cc(/C=C2\NC(=O)N(Cc3ccc(Cl)cc3)C2=O)c1C,9.26 µM
5,Cc1ccc(N=Nc2c(N)[nH]n3c(=O)cc(-c4ccccc4)nc23)cc1,inactive
6,Cc1ccc(-n2c(C)n[nH]c2=S)cc1C,> 54 µM (inactive)
7,O=C(COC(=O)c1ccc2ccccc2c1)NCCCc1ccccc1,> 54 µM (inactive)
8,COc1cc(CNc2ccc(O)cc2)cc(Br)c1OCc1ccccc1F,> 54 µM (inactive)
9,Nc1nc(SCc2ccc([N+](=O)[O-])cc2)nc2nc3c(cc12)CCCC3,> 54 µM (inactive)
10,COc1cc(/C=C2/SC(=S)NC2=O)ccc1OS(=O)(=O)c1ccc(C)cc1,9.94 µM
11,Clc1cccc(Cl)c1CON/C=N/c1ncnc2sccc12,> 54 µM (inactive)
12,Cc1ccc(CNC(=O)CCS(=O)(=O)c2cccc3nonc23)cc1,> 54 µM (inactive)
13,CCOC(=O)Cc1csc(NC(=O)CSc2nnnn2-c2ccc(C)c(C)c2)n1,> 54 µM (inactive)
14,COc1cc(NS(=O)(=O)c2ccc(NC(=S)NC(=O)c3sc4ccccc4c3Cl)cc2)nc(OC)n1,> 54 µM (inactive)
15,COC(=O)c1ccc2nc(Nc3nc4ccc(F)cc4s3)sc2c1,0.49 µM
16,Cc1nn(Cc2ccccc2)c(C)c1NC(=O)CSc1nc(-c2ccccc2)nc2c1cnn2-c1ccccc1,0.47 µM
17,O=c1c2ccccc2nc(CSc2nnnn2-c2ccccc2)n1-c1ccccc1,18.7 µM
18,O=C(CSc1nnc(SCc2ccc(Cl)cc2)s1)N/N=C/c1c[nH]c2ccccc12,0.44 µM
19,Brc1cccc(OCCOCCn2ccnc2)c1,> 54 µM (inactive)
20,CCCCN1C(=O)/C(=C/C=C/c2ccco2)C(=O)NC1=S,8.35 µM
21,Cc1ccc2nc(NC(=O)c3cccc(-c4cc5ccccc5oc4=O)c3)sc2c1,0.99 µM
22,CC1=NOC(=O)/C1=C\c1ccc(-c2ccc(Cl)cc2Cl)o1,1.94 µM
23,Cc1ccc2nc(-c3ccc(SCC(=O)Nc4nnc(C)s4)nc3)[nH]c2c1,8.48 µM
24,Cc1ccc(C(C)C)cc1NC(=O)Nc1ccc([N+](=O)[O-])cc1,> 54 µM (inactive)
25,COc1ccc(C)cc1S(=O)(=O)N(C)CC(=O)NCc1ccco1,> 54 µM (inactive)

row,SMILES,IC50
1,O=C(NCc1nc2ncc(Br)cc2[nH]1)c1ccccc1,> 54 µM (inactive)
2,CN(C)C(=O)/C(C#N)=C\c1cc(Br)c(Sc2ccc(Cl)cc2)o1,> 54 µM (inactive)
3,O=S(=O)(NCc1ccccc1)c1cccc(S(=O)(=O)N2CCOCC2)c1,> 54 µM (inactive)
4,COC(=O)CN1C(C)=Nc2ccc(Br)cc2C1c1ccccc1 (centres undefined),> 54 µM (inactive)
5,C#CCOCCOCCOCCNc1nc(N2CCN(C(=O)[C@H](CCCCN)n3cc([C@@H](N)C(C)CC)nn3)CC2)nc(N2CCN(C(=O)[C@H](CCCCN)n3cc([C@@H](N)CO)nn3)CC2)n1 (some centres undefined),0.63 µM
6,CCOc1ccc(-c2ccc(/C=C3/C(=N)N4C=CSC4=NC3=O)o2)c([N+](=O)[O-])c1,0.86 µM
7,O=C(NCC1CCCO1)c1ccc(CSCc2cccc(F)c2)o1 (centres undefined),> 54 µM (inactive)
8,NC(=S)n1[nH]c(-c2ccc([N+](=O)[O-])cc2)c(N=Nc2cccc(Cl)c2)c1=O,0.68 µM
9,NC(=O)NC(CC(=O)NCCc1ccc(S(N)(=O)=O)cc1)c1ccc(Cl)cc1 (centres undefined),> 54 µM (inactive)
10,CCCN(CCC)CCNC(=O)C1CC(=O)N(c2ccc(OC)cc2)C1c1ccc(OC)cc1 (centres undefined),> 54 µM (inactive)
11,Cc1ccc(C(=O)CN(C(=O)c2ccc(Cl)c(Cl)c2)N2C(=O)C3C4C=CC(C4)C3C2=O)cc1 (centres undefined),> 54 µM (inactive)
12,O=C(COc1ccc(S(=O)(=O)N2CCCC2)cc1Cl)NC1CC1,> 54 µM (inactive)
13,O=[N+]([O-])c1cc(Cl)cc(/C=N/NC(=S)Nc2cc(S(=O)(=O)N3CCOCC3)ccc2Cl)c1O,7.3 µM
14,Cc1cc(=O)oc2cc(OCc3ccc(C(=O)OCC(=O)Nc4ccc(N(C)C)cc4)cc3)ccc12,0.7 µM
15,Cc1occc1C(=O)NNC(=O)Nc1ccc([N+](=O)[O-])cc1,> 54 µM (inactive)
16,O=C(c1cnn2c(C(F)(F)F)cc(-c3cccs3)nc12)N1CCOCC1,> 54 µM (inactive)
17,CC(C)CN(CC(C)C)C(=S)NC1CCCCC1,> 54 µM (inactive)
18,FC(F)(F)c1cccc(N/N=C/c2ccccc2)c1,> 54 µM (inactive)
19,CCOC(=O)c1c(NC(=O)CN(C)C)sc(C(=O)N(CC)CC)c1C,> 54 µM (inactive)
20,CCN(CC)c1ccc(CNc2nc3ccccc3n2C)cc1,> 54 µM (inactive)
21,O=C(/C=C/c1cccs1)Nc1scc(-c2ccccc2)c1C(=O)O,0.54 µM
22,Cc1cc2nc(-c3ccc(NC(=O)C(C)C)cc3)oc2cc1C,3.02 µM
23,CCN(CC)c1ccc2cc(-c3nc4ccccc4[nH]3)c(=O)oc2c1,1.62 µM
24,CCCCCSc1nnc2c(n1)OC(c1cccn1C)N(C(C)=O)c1ccccc1-2 (centres undefined),> 54 µM (inactive)
